Test results published in PubChem BioAssay (NCI).
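96-well plates; 48 h exposure; 5 concentrations. Endpoints by linear interpolation between flanking doses. Not reached: highest tested concentration assigned. GI50 = concentration required for 50% inhibition of growth. At the TGI there is no net growth.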

Tests used:
Test in all cases: NCI-60 cell line screen, 48 h
DU-145 prostate = system: DU-145 prostate
HOP-62 NSCLC = system: HOP-62 NSCLC
MDA-MB-435 = system: MDA-MB-435
MDA-N = system: MDA-N
RXF 393 renal = system: RXF 393 renal
SN12C renal = system: SN12C renal
SNB-19 CNS = system: SNB-19 CNS
UACC-62 melanoma = system: UACC-62 melanoma
LOX IMVI melanoma = system: LOX IMVI melanoma
HL-60(TB) leukemia = system: HL-60(TB) leukemia

Row | Compound | TGI (DU-145 prostate) [µM] | TGI (HOP-62 NSCLC) [µM] | TGI (MDA-MB-435) [µM] | TGI (MDA-N) [µM] | TGI (RXF 393 renal) [µM] | TGI (SN12C renal) [µM] | TGI (SNB-19 CNS) [µM] | TGI (UACC-62 melanoma) [µM] | GI50 (LOX IMVI melanoma) [µM] | TGI (LOX IMVI melanoma) [µM] | GI50 (RXF 393 renal) [µM] | GI50 (SN12C renal) [µM] | GI50 (SNB-19 CNS) [µM] | GI50 (UACC-62 melanoma) [µM] | TGI (HL-60(TB) leukemia) [µM]
1 | O=C(Nc1ccccc1)c1cc2ccccc2c(N=Nc2cccc([N+](=O)[O-])c2)c1O | > 100 | > 100 | > 100 | > 100 | > 100 | > 100 | 97.2 | > 100 | – | – | – | – | – | – | –
2 | O=C([CH-]C(=O)c1ccccc1)c1ccccc1.[C-]#[O+].[C-]#[O+].[Ir] | – | – | – | – | > 100 | > 100 | > 100 | > 100 | 46.5 | > 100 | 33.6 | 48.3 | 66.4 | 42.1 | –
3 | O=C(Nc1ccccc1[N+](=O)[O-])/C(=N/Nc1cccc(Cl)c1)c1c(O)c2ccccc2oc1=O | – | – | – | – | > 100 | – | > 100 | > 100 | – | > 100 | – | – | – | – | –
4 | CCOC(=O)/C(Br)=C1\OC(=O)c2ccccc2-c2ccccc21 | – | 54.7 | – | – | – | > 100 | – | > 100 | – | > 100 | – | – | – | – | 40.1
5 | Cc1cc(N(CCC#N)S(=O)(=O)c2ccccc2)ccc1C=Nc1cccc(C(=O)O)c1 | – | > 100 | – | – | > 100 | > 100 | > 100 | > 100 | – | – | – | – | – | – | > 100
6 | CC(=O)N1C(C(=O)NN2CCOCC2)CSC1c1ccccc1 (configuration not stated) | > 100 | > 100 | > 100 | > 100 | – | > 100 | > 100 | > 100 | – | > 100 | – | – | – | – | –
7 | NC(Cc1ccc(O)cn1)C(=O)NC(C(=O)O)c1ccccc1 (configuration not stated) | > 100 | > 100 | > 100 | > 100 | > 100 | > 100 | > 100 | – | – | > 100 | – | – | – | – | > 100
8 | COC(CNC(=O)CNC(=O)c1ccc(C(F)(F)F)cc1)OC | > 100 | – | > 100 | > 100 | > 100 | > 100 | > 100 | > 100 | – | – | – | – | – | – | > 100
9 | COc1ccc(C=Nc2ccc(-c3nc4ccccc4s3)cc2)cc1OC | > 100 | 39.2 | > 100 | 99 | 62.4 | > 100 | > 100 | 47.2 | – | 45.5 | – | – | – | – | –
10 | CN(C)CCCNC(=O)N/N=C/c1ccc(O)cc1 | > 100 | > 100 | > 100 | > 100 | – | > 100 | > 100 | > 100 | – | – | – | – | – | – | > 100
11 | CC(C)OP(=O)(OC(C)C)C(=NCCO)NNc1ccc([N+](=O)[O-])cc1 | – | > 100 | – | – | – | > 100 | > 100 | > 100 | – | > 100 | – | – | – | – | > 100
12 | CC(=O)O[C@@H]1[C@H](OC2CCCCC2(c2ccccc2)c2ccccc2)O[N+]([O-])=CC12CCCCC2 (some centres not stated) | 32 | – | 29.2 | 36.7 | 32.6 | 35.4 | – | 32.6 | – | 46.2 | – | – | – | – | 5.65
13 | Cc1ccc(Nc2c3c(c(C#N)c4nc5ccccc5n24)CCCC3)cc1 | > 100 | – | 45.8 | > 100 | – | 31.7 | > 100 | 71.2 | – | > 100 | – | – | – | – | 25.5
